Test results taken from ChEMBL document CHEMBL1128218, “New alpha-thiol dipeptide dual inhibitors of angiotensin-I converting enzyme and neutral endopeptidase EC 3.4.24.11” (J Med Chem, 1995).

Target: T1, Angiotensin-converting enzyme (Rattus norvegicus) (UniProt P47820)
T1 sequence (whole entry): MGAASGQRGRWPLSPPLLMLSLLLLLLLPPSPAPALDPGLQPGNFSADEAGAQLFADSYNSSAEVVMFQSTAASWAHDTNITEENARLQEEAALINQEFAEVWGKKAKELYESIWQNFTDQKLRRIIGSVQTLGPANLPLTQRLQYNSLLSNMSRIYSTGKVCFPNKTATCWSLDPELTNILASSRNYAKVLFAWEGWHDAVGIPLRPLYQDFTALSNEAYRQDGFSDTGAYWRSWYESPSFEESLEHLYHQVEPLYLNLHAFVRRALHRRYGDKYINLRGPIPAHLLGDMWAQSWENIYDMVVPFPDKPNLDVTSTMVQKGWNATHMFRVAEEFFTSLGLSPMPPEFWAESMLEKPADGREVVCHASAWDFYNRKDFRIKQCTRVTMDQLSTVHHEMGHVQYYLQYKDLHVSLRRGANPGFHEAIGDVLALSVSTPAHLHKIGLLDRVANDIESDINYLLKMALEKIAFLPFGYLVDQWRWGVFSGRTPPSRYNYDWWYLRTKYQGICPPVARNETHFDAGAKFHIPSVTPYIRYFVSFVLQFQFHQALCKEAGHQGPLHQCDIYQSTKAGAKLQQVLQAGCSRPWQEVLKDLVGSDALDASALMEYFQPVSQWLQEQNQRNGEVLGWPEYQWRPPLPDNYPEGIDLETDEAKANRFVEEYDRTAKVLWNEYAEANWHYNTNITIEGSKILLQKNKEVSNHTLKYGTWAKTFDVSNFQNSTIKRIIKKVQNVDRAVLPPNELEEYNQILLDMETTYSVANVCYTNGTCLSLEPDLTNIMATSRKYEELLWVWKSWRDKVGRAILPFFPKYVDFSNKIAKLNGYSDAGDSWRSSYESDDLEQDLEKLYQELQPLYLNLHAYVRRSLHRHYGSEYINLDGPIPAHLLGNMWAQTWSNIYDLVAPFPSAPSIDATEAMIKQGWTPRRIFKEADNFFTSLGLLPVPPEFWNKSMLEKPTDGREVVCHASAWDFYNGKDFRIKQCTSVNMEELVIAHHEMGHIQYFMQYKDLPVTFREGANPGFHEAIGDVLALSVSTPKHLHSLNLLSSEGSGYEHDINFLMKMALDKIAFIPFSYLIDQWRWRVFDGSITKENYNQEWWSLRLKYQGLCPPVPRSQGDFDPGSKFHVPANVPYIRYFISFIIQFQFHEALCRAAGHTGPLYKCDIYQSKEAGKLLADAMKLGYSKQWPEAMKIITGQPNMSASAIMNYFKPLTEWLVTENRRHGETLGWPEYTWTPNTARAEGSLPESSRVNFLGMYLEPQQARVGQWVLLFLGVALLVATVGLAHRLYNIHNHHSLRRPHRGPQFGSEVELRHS
Test: Evaluation of plasma inhibition of Angiotensin I converting enzyme activity in conscious rat 2 hour after oral administration at a dose of 10 mg/kg
Type: functional, organism-based
Parameters: dose 10 mg/kg

| inhibition [%] | SMILES |
| --- | --- |
| 59 | CC(C)[C@H](S)C(=O)NC1(C(=O)N[C@@H](Cc2ccc(O)cc2)C(=O)O)CCCC1 |
| 50 | CC(C)[C@H](S)C(=O)NC1(C(=O)N[C@@H](Cc2c[nH]c3ccccc23)C(=O)O)CCCC1 |
